Among the data in patent US20080207527A1, “Bicyclic Compounds Which Inhibit Beta-Secretase Activity and Methods of Use Thereof” (CoMentis, Inc., priority 2004, published 2008) are Ki and IC50 values, retold here.

The target in assay [1] is memapsin 2 (Homo sapiens, UniProt P56817). Nature of the assay: Inhibition of memapsin 2 beta-secretase activity toward fluorogenic substrate FS-2. The format is biochemical. The settings on record: pH 4, 37° C., 20 minutes pre-incubation, read-out: M2 Ki. In short, it runs like this:
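Enzyme pre-incubated with compound 20 min at pH 4, 37 °C, then fluorogenic substrate FS-2 added. Inhibition derived from rate of fluorescence increase from peptide hydrolysis.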

In assay [2] the target is Cathepsin D (Homo sapiens, UniProt P07339). As to the kind of experiment: Inhibition of cathepsin D activity (substrate peptide hydrolysis, MALDI-TOF). The settings on record: pH 4.1, 37 degrees C., read-out: Cath D Ki. In kind it is biochemical.
The target of assay [3] is T1, memapsin 1 (Homo sapiens, UniProt Q9Y5Z0).
T1 sequence (Q9Y5Z0 63-518): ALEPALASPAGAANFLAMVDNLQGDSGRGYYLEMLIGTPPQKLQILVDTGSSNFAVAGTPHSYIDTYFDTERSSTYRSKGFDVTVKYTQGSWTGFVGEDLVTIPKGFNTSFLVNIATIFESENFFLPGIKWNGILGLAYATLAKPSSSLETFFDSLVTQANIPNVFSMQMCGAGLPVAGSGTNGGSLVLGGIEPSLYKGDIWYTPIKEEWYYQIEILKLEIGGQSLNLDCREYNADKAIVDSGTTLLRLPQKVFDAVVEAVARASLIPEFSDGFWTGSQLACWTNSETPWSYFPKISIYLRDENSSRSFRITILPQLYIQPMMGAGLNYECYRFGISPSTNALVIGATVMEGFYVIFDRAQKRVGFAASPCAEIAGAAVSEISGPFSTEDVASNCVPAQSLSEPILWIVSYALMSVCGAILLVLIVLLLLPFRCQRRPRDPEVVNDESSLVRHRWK
As to the kind of experiment: Inhibition of memapsin 1 beta-secretase activity (substrate peptide hydrolysis, MALDI-TOF). In kind it is biochemical. The settings on record: pH 4.1, 37 degrees C., read-out: M1 Ki.

The subject of assay [4] is Aβ production. As to the kind of experiment: Cellular Aβ IC50 determination (Aβ40 sandwich ELISA). The format is cell-based. The settings on record: Cricetulus griseus, Chinese hamster ovary cells over-expressing human APP695 with London and Swedish mutations, 24 h. In short, it runs like this:
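CHO cells over-expressing human APP695 (London and Swedish mutations) were treated 48 h after seeding with serially diluted compound, top final concentration near 4 μM (0.4% DMSO), for 24 h at 37 °C, 5% CO2. Aβ40 in medium was measured by sandwich ELISA; values relative to control were fit to a 4-parameter IC50 model.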

pIC50, pKi: −log10 of the molar value.

Chain of memapsin 2 (P56817 46-501): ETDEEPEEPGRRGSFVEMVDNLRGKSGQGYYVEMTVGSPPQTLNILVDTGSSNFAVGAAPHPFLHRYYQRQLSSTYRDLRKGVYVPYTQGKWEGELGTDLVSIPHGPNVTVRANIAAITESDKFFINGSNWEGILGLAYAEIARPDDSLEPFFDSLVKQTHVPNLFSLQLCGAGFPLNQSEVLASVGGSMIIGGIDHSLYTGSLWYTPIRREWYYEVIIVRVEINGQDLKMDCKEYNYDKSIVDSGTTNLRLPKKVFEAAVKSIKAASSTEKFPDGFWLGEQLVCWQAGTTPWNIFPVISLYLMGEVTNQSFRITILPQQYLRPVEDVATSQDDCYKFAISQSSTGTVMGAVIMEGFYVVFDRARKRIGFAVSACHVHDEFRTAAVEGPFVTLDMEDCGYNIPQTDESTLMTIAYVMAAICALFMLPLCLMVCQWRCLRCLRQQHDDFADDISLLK
Chain of Cathepsin D (P07339 65-412, species assumed): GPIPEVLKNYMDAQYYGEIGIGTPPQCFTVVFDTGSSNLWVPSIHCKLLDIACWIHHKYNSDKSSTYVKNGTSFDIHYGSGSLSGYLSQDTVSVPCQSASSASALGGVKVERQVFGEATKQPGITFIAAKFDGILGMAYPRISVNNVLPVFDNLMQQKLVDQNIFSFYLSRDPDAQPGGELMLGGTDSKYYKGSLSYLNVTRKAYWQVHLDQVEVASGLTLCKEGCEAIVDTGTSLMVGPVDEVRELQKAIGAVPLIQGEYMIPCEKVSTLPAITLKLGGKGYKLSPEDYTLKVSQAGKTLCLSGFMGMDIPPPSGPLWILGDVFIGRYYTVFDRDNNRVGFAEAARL

With `COc1cccc(CNC(=O)C(C)CC(O)C(CC(C)C)NC(=O)c2cc(C(=O)NC(C)c3ccccc3)cc(N(C)S(C)(=O)=O)c2)c1` (stereo not drawn) [N1-(5-hydroxy-8-(3-methoxybenzylamino)-2,7-dimethyl-8-oxooctan-4-yl)-5-(N-methylmethylsulfonamido)-N3-(1-phenylethyl)isophthalamide], the pKi in assay [1], in assay [2] and in assay [3] was less than 5.30 throughout. The same compound had a pIC50 in assay [4] of 4.70 to 5.00.
As for `CCN1CCCC1CNC(=O)C(NC(=O)C(C)CC(O)C(CC(C)C)NC(=O)c1cc(C(=O)NC(C)c2ccccc2)cc(N(C)S(C)(=O)=O)c1)C(C)C` (stereo not drawn) [N1-(8-(1-((1-ethylpyrrolidin-2-yl)methylamino)-3-methyl-1-oxobutan-2-ylamino)-5-hydroxy-2,7-dimethyl-8-oxooctan-4-yl)-5-(N-methylmethylsulfonamido)-N3-(1-phenylethyl)isophthalamide], the pKi in assay [1], in assay [2] and in assay [3] was more than 6.39 each time. Also, in assay [4], the pIC50 was more than 5.30.
Regarding `CC(C)CC(NC(=O)c1cc(C(=O)NC(C)c2ccccc2)cc(N(C)S(C)(=O)=O)c1)C(O)CC(C)C(=O)NCc1ccccc1` (stereo not drawn) [N1-(8-(benzylamino)-5-hydroxy-2,7-dimethyl-8-oxooctan-4-yl)-5-(N-methylmethylsulfonamido)-N3-(1-phenylethyl)isophthalamide], the pKi in assay [1] is 5.30 to 5.70; in assay [2], less than 5.30; in assay [3], 5.30 to 5.70. The same compound gave a pIC50 in assay [4] of less than 4.70.
For `CCc1csc(CN(C)C(=O)c2cccc(C(=O)NC(CC(C)C)C(O)CC(C)C(=O)NC(C(=O)NCC(C)C)C(C)C)c2)n1` (stereo not drawn) [N1-((4-ethylthiazol-2-yl)methyl)-N3-(5-hydroxy-8-(1-(isobutylamino)-3-methyl-1-oxobutan-2-ylamino)-2,7-dimethyl-8-oxooctan-4-yl)-N1-methylisophthalamide], the pKi is more than 6.39 in assay [1], less than 5.30 in assay [2] and more than 6.39 in assay [3]. In assay [4], the pIC50 is less than 4.70.
With `CC(C)CNC(=O)C(NC(=O)C(C)CC(O)C(CC(C)C)NC(=O)c1cccc(C(=O)N(C)Cc2ccco2)c1)C(C)C` (stereo not drawn) [N1-(furan-2-ylmethyl)-N3-(5-hydroxy-8-(1-(isobutylamino)-3-methyl-1-oxobutan-2-ylamino)-2,7-dimethyl-8-oxooctan-4-yl)-N1-methylisophthalamide], the pKi in assay [1] was more than 6.39; in assay [2], more than 6.39; in assay [3] it was 5.70 to 6.39. In addition, the pIC50 in assay [4] is less than 4.70.
Take `CC(C)CNC(=O)C(NC(=O)C(C)CC(O)C(CC(C)C)NC(=O)c1cc(C(=O)N(C)Cc2ccccc2)cc(N(C)S(C)(=O)=O)c1)C(C)C` (stereo not drawn) [N1-benzyl-N3-(5-hydroxy-8-(1-(isobutylamino)-3-methyl-1-oxobutan-2-ylamino)-2,7-dimethyl-8-oxooctan-4-yl)-N1-methyl-5-(N-methylmethylsulfonamido)isophthalamide]: the pKi in assay [1], in assay [2] and in assay [3] was more than 6.39 each time. For the same compound, the pIC50 in assay [4] is 4.70 to 5.00.
For the compound `CCN(Cc1ccncc1)C(=O)c1cc(C)cc(C(=O)NC(CC(C)C)C(O)CC(C)C(=O)NC(C(=O)NCC(C)C)C(C)C)c1` (stereo not drawn) [N1-ethyl-N3-(5-hydroxy-8-(1-(isobutylamino)-3-methyl-1-oxobutan-2-ylamino)-2,7-dimethyl-8-oxooctan-4-yl)-5-methyl-N1-(pyridin-4-ylmethyl)isophthalamide], the figures for the pKi in assay [1], in assay [2] and in assay [3] were 5.70 to 6.39, more than 6.39 and more than 6.39, respectively. In addition, the pIC50 in assay [4] is less than 4.70.
For `CC(C)CNC(=O)C(NC(=O)C(C)CC(O)C(CC(C)C)NC(=O)c1cncc(C(=O)N(C)Cc2ccccn2)c1)C(C)C` (stereo not drawn) [N3-(5-hydroxy-8-(1-(isobutylamino)-3-methyl-1-oxobutan-2-ylamino)-2,7-dimethyl-8-oxooctan-4-yl)-N5-methyl-N5-(pyridin-2-ylmethyl)pyridine-3,5-dicarboxamide], the pKi in assay [1], in assay [2] and in assay [3] was more than 6.39 in each case. The compound also gave a negative logarithm of the IC50 (pIC50) in assay [4] of less than 4.70.
Consider `CC(C)CC(NC(=O)c1cc(C(=O)NC(C)c2ccccc2)cc(N(C)C(=O)OC2CCOC2)c1)C(O)CC(C)C(=O)NC(C(=O)NC(C)C)C(C)C` (stereo not drawn) [tetrahydrofuran-3-yl 3-(5-hydroxy-8-(1-(isopropylamino)-3-methyl-1-oxobutan-2-ylamino)-2,7-dimethyl-8-oxooctan-4-ylcarbamoyl)-5-(1-phenylethylcarbamoyl)phenyl(methyl)carbamate], for which the figures for the pKi in assay [1], in assay [2] and in assay [3] were 5.70 to 6.39, more than 6.39 and more than 6.39, respectively. The same compound gave a negative logarithm of the IC50 (pIC50) in assay [4] of less than 4.70.

The term pKi denotes the negative decadic logarithm of the Ki, by convention in mol/L. The term pIC50 denotes the negative decadic logarithm of the IC50, by convention in mol/L. Lower therefore signals a large IC50.
